Experimental data published in article PMC5503534, “Stable aneuploid tumors cells are more sensitive to TTK inhibition than chromosomally unstable cell lines” (Oncotarget, 2017).
pIC50, pKd: −log10 of the molar value. Where “and” joins values, the source holds several entries; their conditions need not be identical. Equal values may be shown once. Read-outs that look alike come from different tables or passages of the source.

Legend:
full-length Aurora B = target: T1, full-length Aurora B (Homo sapiens, UniProt Q96GD4); assay: Surface plasmon resonance binding kinetics, Aurora B; conditions: SPR
T1 construct: to the kinase domain of TTK and full-length Aurora B; purchased Carna Biosciences, Inc., Kobe, Japan; host or cells: Sf9 insect cells
T1 sequence (Q96GD4 whole entry, the tested form may be a part): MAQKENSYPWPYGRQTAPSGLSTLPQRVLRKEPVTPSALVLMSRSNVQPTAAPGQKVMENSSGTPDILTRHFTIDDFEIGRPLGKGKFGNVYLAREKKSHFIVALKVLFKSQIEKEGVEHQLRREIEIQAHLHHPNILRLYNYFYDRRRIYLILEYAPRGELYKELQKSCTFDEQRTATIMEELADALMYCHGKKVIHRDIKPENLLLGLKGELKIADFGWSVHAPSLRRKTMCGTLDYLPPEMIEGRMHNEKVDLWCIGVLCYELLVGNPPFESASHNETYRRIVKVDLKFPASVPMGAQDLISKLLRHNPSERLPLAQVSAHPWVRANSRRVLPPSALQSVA
Excerpt: Originally, the compound was identified in a phenotypic screen for molecules that can induce stem-cell like phenotypes. Later this property was attributed to its ability to inhibit the mitotic kinase Aurora B [39].

[1] = system: HCT 116 colon carcinoma cell line; assay: Cell proliferation assay (ATPlite), HCT 116; assay type: cell-based, human
Protocol: (§1) Cell proliferation assays were carried out as described using ATPlite 1step™ (Perkin Elmer, Groningen, The Netherlands). Exposure time was 72 or 120 hours as indicated in the Legends to the Figures. Percentage growth was calculated, relative to the growth of unexposed cells, and relative IC50s were fitted using a four-parameter logistics curve (XLfit 5.3, IDBS). For Figure 4A and 7 dose response curves were redrawn in Prism. To compare the inhibitory potency of compounds in proliferation assays with HCT 116 parental and tetraploid clones, pIC50 (−^10logIC50) values were compared in three independent experiments. A two-tailed Student's t-test was performed to determine whether differences in sensitivity (ΔpIC50) were statistically significant. Caspase 3/7 activity of cancer cells was measured using Caspase-Glo 3/7 Assay kit (cat no. G8093, Promega, Madison USA). Viability of T-ALL cell samples was determined using ATPlite and exposure of 72 hours as described previously.

[2] = system: A-172 glioblastoma cell line; assay: Cell proliferation assay (ATPlite), A-172; assay type: cell-based, human; conditions: 5 day proliferation assay
Protocol: as §1

[3] = system: DoTc2 4510 cervix carcinoma cell line; assay: Cell proliferation assay (ATPlite), DoTc2 4510; assay type: cell-based, human; conditions: 5 day proliferation assay
Protocol: as §1

[4] = system: MG-63 osteosarcoma cell line; assay: Cell proliferation assay (ATPlite), MG-63; assay type: cell-based, human; conditions: 5 day proliferation assay
Protocol: as §1

[5] = system: OVCAR-3 ovary adenocarcinoma cell line; assay: Cell proliferation assay (ATPlite), OVCAR-3; assay type: cell-based, human; conditions: 5 day proliferation assay
Protocol: as §1

[6] = system: post-tetraploid HPT1 cells; assay: Cell proliferation assay, post-tetraploid HPT1; assay type: cell-based, human; conditions: HPT1, five days
Protocol: (§2) Cancer cell lines and hTERT-RPE1 retinal pigment epithelial cells were purchased from the American Type Culture Collection (ATCC) (Manassas, VA, U.S.A.) from 2011 to 2014 [41] and cultured in ATCC-recommended media. All experiments were carried out within nine passages of the original vials from ATCC who authenticated the cancer cell lines by short tandem repeat analysis. We verified the mutant status of seven frequently mutated cancer genes (i.e., BRAF, CDKN2A, CTNNB1, EGFR, KRAS, PIK3CA and TP53) by full exome or targeted sequencing. Sequencing results were compared to COSMIC version 75 of the Genomics of Drug Sensitivity in Cancer data base and provided additional authentication of the identity of the cell lines. The isolation and characterization of post-tetraploid clones from HCT 116 has been described previously. The mutation status of the CDKN2A, CTNNB1, KRAS and PIK3CA genes were confirmed by sequence analysis in both the HCT 116 parental cell line and post-tetraploid clones. All experiments were carried out within nine passages of the original cell stocks that were transferred from the Max Planck Institute of Biochemistry (Martinsried, Germany) to Netherlands Translational Research Center.
as §1

[7] = system: post-tetraploid HPT2 cells; assay: Cell proliferation assay, post-tetraploid HPT2; assay type: cell-based, human; conditions: HPT2, five days
Protocol: as §2, §1

[8] = system: post-tetraploid HPT4 cells; assay: Cell proliferation assay, post-tetraploid HPT4; assay type: cell-based, human; conditions: HPT4, five days
Protocol: as §2, §1

[9] = system: HCT 116 vs HPT1, -2 and -4; assay: Drug sensitivity analysis, HCT116 diploid versus tetraploids; assay type: cell-based, human
Protocol: as §1

[10] = system: HCT 116 parental cells or tetraploids; assay: Colony formation assay; assay type: cell-based, human; conditions: pre-treated 4 days with 100 nM, reseeded
Protocol: After 4 days, the cells were washed with phosphate-buffered saline (PBS) and allowed to recover for 24 hours. The remaining cells were collected and plated at a density of 1000 cells per well in a 96-well plate. After ten days, cells were fixed with 96% methanol for 20 minutes, washed with PBS and stained with 0.1% (w/v) crystal violet over-night. Plates were washed in tap water and allowed to dry before scanning and analysis with ImageJ software (NIH, Bethesda, MD, USA).

[11] = system: HCT 116 colon carcinoma cell line; conditions: three day cell proliferation assay; cited from earlier work
[12] = system: LoVo colorectal adenocarcinoma cell line; conditions: three day cell proliferation assay; cited from earlier work
[13] = system: OVCAR-3 ovary adenocarcinoma cell line; conditions: three day cell proliferation assay; cited from earlier work
[14] = system: 66 cancer cell lines (44 cell lines); design: method as in earlier work; conditions: cited from earlier work
[15] = toxicity studies in mice; cited from earlier work
[16] = geometric average of three experiments

## CCc1cccc(CC)c1NC(=O)c1ccn2c1CCc1cnc(Nc3ccc(N4CCN(C)CC4)cc3OC)nc1-2 [NTRC 0066-0]
full-length Aurora B; KD = kd/ka
  pKd: 6.04
full-length Aurora B; geometric average
  ka: 13400 M⁻¹ s⁻¹
  kd: 0.0122 s⁻¹
[1]; 5 day proliferation assay, HCT 116 (Suppl. Table 1)
  pIC50: 7.39
[1]; HCT 116, five days, maximum inhibitory effect, average of three experiments
  Eff. (%): 80%
[1]; HCT 116 near-diploid, five days, geometric average of three experiments (Suppl. Table 2A)
  pIC50: 7.36
[2]
  pIC50: 7.47
[3]
  pIC50: 6.65
[4]
  pIC50: 6.59
[5]
  pIC50: 6.57
[6]; average of three experiments
  Efficacy (%): 59%
[6]; [16]
  pIC50: 7.40
[7]; average of three experiments
  Efficacy (%): 36%
[7]; [16]
  pIC50: 7.36
[8]; average of three experiments
  Efficacy (%): 48%
[8]; [16]
  pIC50: 7.36
[9]; HCT 116 vs HPT1, -2 and -4
  Δeff. (%): −33%
[9]; HCT 116 vs HPT1, -2 and -4, based on % effect
  Phenotype (efficacy): resistant
[9]; HCT 116 vs HPT1, -2 and -4, 'resistant' indicates that tetraploids are resistant
  Phenotype (potency): sensitive
[9]; average log shift in sensitivity between parental and tetraploids
  ΔpIC50: −0.01
[10]
  proliferation after compound wash-out (colony formation): unable to fully resume proliferation
[11]
  pIC50: 7.43
[12]
  pIC50: 7.40
[13]
  pIC50: 6.05 and 6.06
[14]; 3 days, geometric average in 44 cell lines
  pIC50: 7.17
[14]; 5 days, geometric average in 66 cancer cell lines
  pIC50: 7.01
[15]
  effect on bone marrow or blood cell count (hematological toxicity): no effect on bone marrow or blood cell count
